Results published in PMC8513526, “An Advanced Automated Patch Clamp Protocol Design to Investigate Drug—Ion Channel Binding Dynamics” (Frontiers in Pharmacology, 2021).
Like-named read-outs stand apart in the source and are kept apart here.

How the values were obtained:
Assay type in all cases: cell-based
rNaV1.4 [1] = target: T1, rNaV1.4 (Rattus norvegicus, UniProt P15390); assay: automated patch clamp (IonFlux Mercury), […]
T1 construct: gene Scn4a; recombinant rNaV1.4 channel stably expressed in HEK 293 cells

rNaV1.4 [2] = target: T1, rNaV1.4; assay: automated patch clamp (IonFlux Mercury), […]; inhibition of pulse #[…] peak current at […]
rNaV1.4 [3] = target: T1, rNaV1.4; assay: automated patch clamp (IonFlux Mercury ensemble recording; Port-a-Patch single-cell validation), […]
rNaV1.4 [4] = target: T1, rNaV1.4; assay: as above; remark: listed apart in the source

T1 sequence (P15390 whole entry): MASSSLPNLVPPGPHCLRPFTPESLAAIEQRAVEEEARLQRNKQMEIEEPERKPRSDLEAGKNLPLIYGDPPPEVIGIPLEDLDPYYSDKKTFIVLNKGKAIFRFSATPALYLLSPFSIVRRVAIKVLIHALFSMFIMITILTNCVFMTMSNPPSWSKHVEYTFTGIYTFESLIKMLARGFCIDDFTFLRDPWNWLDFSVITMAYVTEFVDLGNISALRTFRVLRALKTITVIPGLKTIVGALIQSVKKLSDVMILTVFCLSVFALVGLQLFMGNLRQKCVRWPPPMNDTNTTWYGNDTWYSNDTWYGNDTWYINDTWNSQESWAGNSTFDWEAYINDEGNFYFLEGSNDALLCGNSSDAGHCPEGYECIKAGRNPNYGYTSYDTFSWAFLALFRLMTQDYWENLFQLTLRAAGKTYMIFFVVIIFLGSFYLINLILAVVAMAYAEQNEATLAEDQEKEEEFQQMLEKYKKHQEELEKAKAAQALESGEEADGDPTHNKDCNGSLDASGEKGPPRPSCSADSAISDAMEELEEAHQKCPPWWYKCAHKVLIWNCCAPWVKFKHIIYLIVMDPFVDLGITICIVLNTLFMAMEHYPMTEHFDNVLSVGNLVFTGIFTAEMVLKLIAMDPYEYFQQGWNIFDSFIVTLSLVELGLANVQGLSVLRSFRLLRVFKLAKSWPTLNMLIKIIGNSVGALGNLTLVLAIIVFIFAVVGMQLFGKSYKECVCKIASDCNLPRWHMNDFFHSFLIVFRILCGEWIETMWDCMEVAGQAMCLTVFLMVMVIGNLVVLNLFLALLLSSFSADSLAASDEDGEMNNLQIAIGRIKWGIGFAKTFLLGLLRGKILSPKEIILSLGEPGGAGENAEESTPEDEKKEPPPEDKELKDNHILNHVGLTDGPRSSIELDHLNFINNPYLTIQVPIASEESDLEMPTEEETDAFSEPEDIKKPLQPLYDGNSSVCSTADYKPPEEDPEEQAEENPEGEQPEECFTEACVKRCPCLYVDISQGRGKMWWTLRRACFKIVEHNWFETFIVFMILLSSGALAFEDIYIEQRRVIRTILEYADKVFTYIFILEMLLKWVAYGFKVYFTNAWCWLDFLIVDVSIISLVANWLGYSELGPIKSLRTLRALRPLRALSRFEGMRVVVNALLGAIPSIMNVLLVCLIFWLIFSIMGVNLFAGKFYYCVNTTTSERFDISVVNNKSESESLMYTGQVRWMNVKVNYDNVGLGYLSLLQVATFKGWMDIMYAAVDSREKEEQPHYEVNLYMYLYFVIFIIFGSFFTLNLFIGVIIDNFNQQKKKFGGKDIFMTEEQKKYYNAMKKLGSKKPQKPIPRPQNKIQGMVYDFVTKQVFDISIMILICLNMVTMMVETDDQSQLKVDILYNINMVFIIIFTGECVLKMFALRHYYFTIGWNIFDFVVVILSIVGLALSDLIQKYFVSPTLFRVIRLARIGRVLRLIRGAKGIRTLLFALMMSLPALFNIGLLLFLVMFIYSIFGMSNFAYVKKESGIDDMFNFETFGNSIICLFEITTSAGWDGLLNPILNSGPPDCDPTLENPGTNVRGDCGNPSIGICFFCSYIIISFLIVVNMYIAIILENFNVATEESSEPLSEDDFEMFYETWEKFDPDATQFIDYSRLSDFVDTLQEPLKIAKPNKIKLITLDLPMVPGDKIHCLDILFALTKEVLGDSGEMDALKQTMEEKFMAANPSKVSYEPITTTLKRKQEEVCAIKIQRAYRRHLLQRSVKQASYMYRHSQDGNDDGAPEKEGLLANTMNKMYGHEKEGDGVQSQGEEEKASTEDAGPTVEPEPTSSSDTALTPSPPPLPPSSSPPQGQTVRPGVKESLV

CN(C)CCCN1c2ccccc2Sc2ccc(Cl)cc21 [chlorpromazine]
automated patch clamp (IonFlux Mercury), 10 and 30 μM (rNaV1.4 [1]): inhibition by chlorpromazine was not much relieved throughout the whole 17-pulse sweep

CN(C)CCCN1c2ccccc2CCc2ccccc21 [imipramine]
inhibition at 30 µM (rNaV1.4 [2]): 50 to 55%

CCN(CC)CC(=O)Nc1c(C)cccc1C [lidocaine]
automated patch clamp (IonFlux Mercury ensemble recording); Port-a-Patch single-c (rNaV1.4 [3]): lidocaine caused a slowing of the fast time constant of recovery, which was moderate at lower concentrations

Nc1nc2ccc(OC(F)(F)F)cc2s1 [riluzole]
automated patch clamp (IonFlux Mercury ensemble recording); Port-a-Patch single-c (rNaV1.4 [4]): riluzole caused no change in either the contribution or the value of the slow time constant but caused a radical
